Experiment [1] deals with MKN-45. Briefly: cells. The following applies: Homo sapiens, MKN-45, 72 h.
Description: Cytotoxicity against human MKN45 cells assessed as reduction in cell viability incubated for 72 hrs by MTT assay
Experiment [2] has as its system A549. Nature of the experiment: cells. The settings on record: Homo sapiens, A549, 72 h.
Description: Cytotoxicity against human A549 cells assessed as reduction in cell viability incubated for 72 hrs by MTT assay
Experiment [3] relates to U-87 MG. Nature of the experiment: cells. The following applies: Homo sapiens, 72 h.
Description: Cytotoxicity against human U87MG cells assessed as reduction in cell viability incubated for 72 hrs by MTT assay
The subject of experiment [4] is HT-29. Nature of the experiment: cells. The settings on record: Homo sapiens, HT-29, 72 h.
Description: Cytotoxicity against human HT-29 cells assessed as reduction in cell viability incubated for 72 hrs by MTT assay
The subject of experiment [5] is NCI-H460. Briefly: cells. The settings on record: Homo sapiens, NCI-H460, 72 h.
Description: Cytotoxicity against human H460 cells assessed as reduction in cell viability incubated for 72 hrs by MTT assay
The test system of experiment [6] is NCI-H460. Nature of the experiment: Potency index, ratio of IC50 of foretinib to IC50 of compound for cytotoxicity against human H460 cells assessed as reduction in cell viability incubated for 72 hrs by MTT assay. The class given is functional. For orientation: Tetrazolium assays rely on reduction of a dye to a coloured formazan, in cell work by metabolically active cells.

The subject of experiment [7] is HT-29. Briefly: Potency index, ratio of IC50 of foretinib to IC50 of compound for cytotoxicity against human HT-29 cells assessed as reduction in cell viability incubated for 72 hrs by MTT assay. Type of experiment: functional.
The target of experiment [8] is Hepatocyte growth factor receptor (Homo sapiens, UniProt P08581). Nature of the experiment: Inhibition of cMET (unknown origin) using poly (Glu, Tyr) 4:1 as substrate incubated for 30 mins by HTRF assay.
Chain of Hepatocyte growth factor receptor (P08581 whole entry): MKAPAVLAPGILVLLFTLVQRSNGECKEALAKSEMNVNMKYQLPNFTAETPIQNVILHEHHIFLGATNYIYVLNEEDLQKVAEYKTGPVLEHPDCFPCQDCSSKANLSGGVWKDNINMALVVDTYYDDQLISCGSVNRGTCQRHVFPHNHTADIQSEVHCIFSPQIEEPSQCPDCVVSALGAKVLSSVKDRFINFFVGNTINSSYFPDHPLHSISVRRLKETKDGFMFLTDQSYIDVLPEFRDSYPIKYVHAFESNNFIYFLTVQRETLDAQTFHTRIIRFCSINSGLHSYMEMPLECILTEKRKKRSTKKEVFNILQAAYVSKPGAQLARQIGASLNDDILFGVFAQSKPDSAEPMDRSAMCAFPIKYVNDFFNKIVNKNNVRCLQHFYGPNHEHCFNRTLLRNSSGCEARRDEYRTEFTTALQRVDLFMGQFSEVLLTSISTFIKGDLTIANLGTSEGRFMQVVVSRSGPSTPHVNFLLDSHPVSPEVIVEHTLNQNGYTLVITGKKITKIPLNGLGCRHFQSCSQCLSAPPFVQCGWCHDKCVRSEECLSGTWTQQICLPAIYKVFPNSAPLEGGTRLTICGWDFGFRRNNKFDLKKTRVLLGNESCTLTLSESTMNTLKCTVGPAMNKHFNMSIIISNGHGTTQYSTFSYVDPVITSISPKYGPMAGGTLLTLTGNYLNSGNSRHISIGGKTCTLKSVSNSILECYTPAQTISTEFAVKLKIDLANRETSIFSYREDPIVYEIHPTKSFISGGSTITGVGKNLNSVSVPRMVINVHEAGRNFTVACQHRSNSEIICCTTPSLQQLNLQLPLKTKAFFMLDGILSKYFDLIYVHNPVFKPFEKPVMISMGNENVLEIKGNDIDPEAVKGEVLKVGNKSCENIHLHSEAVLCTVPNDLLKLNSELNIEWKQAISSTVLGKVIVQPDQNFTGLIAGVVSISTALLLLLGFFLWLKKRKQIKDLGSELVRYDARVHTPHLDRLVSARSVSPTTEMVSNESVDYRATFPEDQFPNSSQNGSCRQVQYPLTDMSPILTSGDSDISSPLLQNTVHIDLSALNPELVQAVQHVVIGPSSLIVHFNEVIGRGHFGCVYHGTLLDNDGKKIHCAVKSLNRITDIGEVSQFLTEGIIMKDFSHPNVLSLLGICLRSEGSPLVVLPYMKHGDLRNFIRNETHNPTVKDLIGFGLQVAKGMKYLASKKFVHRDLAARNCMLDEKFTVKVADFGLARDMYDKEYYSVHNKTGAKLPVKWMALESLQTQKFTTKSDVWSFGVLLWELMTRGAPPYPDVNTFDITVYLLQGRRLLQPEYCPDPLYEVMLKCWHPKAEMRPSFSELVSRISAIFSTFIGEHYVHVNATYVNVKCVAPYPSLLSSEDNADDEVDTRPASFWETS
Experiment [9] has as its system A549. Briefly: Potency index, ratio of IC50 of foretinib to IC50 of compound for cytotoxicity against human A549 cells assessed as reduction in cell viability incubated for 72 hrs by MTT assay. Type of experiment: functional.

For orientation: IC50 means the concentration at which inhibition is half-maximal. Higher therefore signals weaker potency. For the compound `COc1ccc(CCn2c(=O)c(C(=O)Nc3ccc(Oc4ccnc5cc(OCCCN6CCCCC6)c(OC)cc45)c(F)c3)nc3ccccc32)cc1`, the IC50 in experiment [1] is 480 nM; in experiment [2] it was 1010 nM; in experiment [3] it was 1600 nM; in experiment [4], 940 nM; in experiment [5], 450 nM.
For the compound `COc1cc2c(Oc3ccc(NC(=O)c4nc5ccccc5n(CCc5ccccc5)c4=O)cc3F)ccnc2cc1OCCCN1CCCCC1`, the half-inhibitory concentration (IC50) in [1] was 180 nM; in experiment [2], 2360 nM; in [3] it was 3620 nM; in [4] it was 870 nM; in experiment [5], 2110 nM.
Take `COc1cc2c(Oc3ccc(NC(=O)c4nc5ccccc5n(Cc5ccc(F)cc5)c4=O)cc3F)ccnc2cc1OCCCN1CCOCC1`: the IC50 in experiment [1] came to 260 nM; in [2] it was 2020 nM; in experiment [3], 650 nM; in experiment [4], 2380 nM; in [5], 930 nM.
For the compound `COc1cc2c(Oc3ccc(NC(=O)c4nc5ccccc5n(C5CCCCC5)c4=O)cc3F)ccnc2cc1OCCCN1CCOCC1`, the “Ratio IC50” value in [6], in [7] and in experiment [9] was 5 each time. In addition, the half-inhibitory concentration (IC50) in experiment [1] worked out at 180 nM; in experiment [2] it was 390 nM; in experiment [3], 810 nM; in experiment [4], 380 nM; in experiment [5] it was 180 nM; in experiment [8], 1.42 nM.
Take `COc1cc2c(Oc3ccc(NC(=O)c4nc5ccccc5n(CCc5ccccc5)c4=O)cc3F)ccnc2cc1OCCCN1CCOCC1`: the half-inhibitory concentration (IC50) in experiment [1] was 780 nM; in experiment [2], 910 nM; in [3], 1350 nM; in experiment [4] it was 350 nM; in experiment [5] it was 1590 nM.
As to `COc1cc2c(Oc3ccc(NC(=O)c4nc5ccccc5n(Cc5ccc(F)cc5)c4=O)cc3F)ccnc2cc1OCCCN1CCN(C)CC1`, the IC50 in [1] was found to be 230 nM; in [2], 2770 nM; in [3], 1730 nM; in [4] it was 1830 nM; in experiment [5], 2240 nM.
The corresponding values for `COc1cc2c(Oc3ccc(NC(=O)c4nc5ccccc5n(C5CCCCC5)c4=O)cc3F)ccnc2cc1OCCCN1CCCCC1` are 270 nM, 810 nM, 760 nM, 270 nM and 270 nM.
On the same counts, the results for `COc1cc2c(Oc3ccc(NC(=O)c4nc5ccccc5n(C5CCCC5)c4=O)cc3F)ccnc2cc1OCCCN1CCOCC1` are 3500 nM, 2480 nM, 2990 nM, 4030 nM and 1670 nM.
In the case of `COc1cc2c(Oc3ccc(NC(=O)c4nc5ccccc5n(C5CCCCC5)c4=O)cc3F)ccnc2cc1OCCCN1CCC(C)CC1`, the half-inhibitory concentration (IC50) in [1] was determined as 250 nM; in experiment [2] it was 1070 nM; in experiment [3], 1670 nM; in experiment [4], 610 nM; in [5] it was 250 nM.
Turning to `COc1cc2c(Oc3ccc(NC(=O)c4nc5ccccc5n(Cc5ccccc5)c4=O)cc3F)ccnc2cc1OCCCN1CCOCC1`, the IC50 came out at 2790 nM in experiment [1]; 5330 nM in experiment [2]; 4280 nM in experiment [3]; 1120 nM in experiment [4]; 6700 nM in [5].
Take `COc1cc2c(Oc3ccc(NC(=O)c4nc5ccccc5n(Cc5ccc(F)cc5)c4=O)cc3F)ccnc2cc1OCCCN1CCCCC1`: the 50% inhibitory concentration (IC50) in experiment [1] was found to be 220 nM; in experiment [2], 1290 nM; in [3], 2120 nM; in experiment [4], 720 nM; in [5], 870 nM.
Consider `COc1cc2c(Oc3ccc(NC(=O)c4nc5ccccc5n(Cc5ccc(F)cc5)c4=O)cc3F)ccnc2cc1OCCCN1CCC(C)CC1`, for which the IC50 was 250 nM in experiment [1]; 480 nM in [2]; 1960 nM in [3]; 380 nM in experiment [4]; 620 nM in experiment [5]; 2.56 nM in experiment [8].
For `COc1cc2c(Oc3ccc(NC(=O)c4nc5ccccc5n(C5CCCC5)c4=O)cc3F)ccnc2cc1OCCCN1CCN(C)CC1`, the half-inhibitory concentration (IC50) in experiment [1] amounted to 3720 nM; in experiment [2], 4370 nM; in [3] it was 1590 nM; in experiment [4] it was 2490 nM; in experiment [5], 2110 nM.
On to `COc1ccc(CCn2c(=O)c(C(=O)Nc3ccc(Oc4ccnc5cc(OCCCN6CCOCC6)c(OC)cc45)c(F)c3)nc3ccccc32)cc1`, for which the IC50 in [1] turned out to be 230 nM; in experiment [2], 6230 nM; in [3] it was 12800 nM; in experiment [4] it was 4940 nM; in [5] it was 2330 nM.
On to `COc1cc2c(Oc3ccc(NC(=O)c4nc5ccccc5n(C5CCCC5)c4=O)cc3F)ccnc2cc1OCCCN1CCCCC1`, for which the IC50 in [1] is 1170 nM; in [2] it was 4360 nM; in [3] it was 5210 nM; in experiment [4], 4190 nM; in experiment [5], 3080 nM.
For `COc1cc2c(Oc3ccc(NC(=O)c4nc5ccccc5n(C5CCCC5)c4=O)cc3F)ccnc2cc1OCCCN1CCC(C)CC1`, the IC50 in [1] amounted to 3660 nM; in experiment [2], 5790 nM; in experiment [3], 5390 nM; in experiment [4], 4430 nM; in experiment [5] it was 2150 nM.
Turning to `COc1cc2c(Oc3ccc(NC(=O)c4nc5ccccc5n(C5CCCCC5)c4=O)cc3F)ccnc2cc1OCCCN1CCN(C)CC1`, the “Ratio IC50” value in experiment [6], in experiment [7] and in experiment [9] was 5 in each case. The IC50 in experiment [1] is 230 nM; in [2] it was 320 nM; in experiment [3], 560 nM; in experiment [4] it was 230 nM; in experiment [5], 230 nM; in experiment [8], 2.34 nM.
`COc1ccc(CCn2c(=O)c(C(=O)Nc3ccc(Oc4ccnc5cc(OCCCN6CCN(C)CC6)c(OC)cc45)c(F)c3)nc3ccccc32)cc1`: the IC50 was 4170 nM in experiment [1]; 1670 nM in experiment [2]; more than 10000 nM in experiment [3]; 790 nM in [4]; 3300 nM in experiment [5].
On the same counts, the results for `COc1ccc(CCn2c(=O)c(C(=O)Nc3ccc(Oc4ccnc5cc(OCCCN6CCC(C)CC6)c(OC)cc45)c(F)c3)nc3ccccc32)cc1` are 410 nM, 550 nM, 2270 nM, 1220 nM and 510 nM.
The corresponding values for `COc1cc2c(Oc3ccc(NC(=O)c4nc5ccccc5n(CCc5ccccc5)c4=O)cc3F)ccnc2cc1OCCCN1CCC(C)CC1` are 650 nM, 1920 nM, 2740 nM, 1410 nM and 1070 nM.
`COc1cc2c(Oc3ccc(NC(=O)c4nc5ccccc5n(CCc5ccccc5)c4=O)cc3F)ccnc2cc1OCCCN1CCN(C)CC1`: the half-inhibitory concentration (IC50) in experiment [1] is 310 nM; in experiment [2], 1040 nM; in [3], 1260 nM; in experiment [4], 960 nM; in [5], 450 nM.
